According to US8497075B2, “Methods of identifying a modulator that inhibits the binding between Epstein-Barr virus induced receptor 2 and cholesterol derived ligands” (Novartis AG, priority 2008, dated 2013):

Key:
Format in all cases: cell-based
hEBI2 [1] = target: T1, hEBI2 (Homo sapiens, UniProt P32249); assay: β-arrestin Pathhunter assay; parameters: host or cells: HEK293-BAEA, transient transfection with Fugene6; conditions: for EC50: HEK293-BAEA transiently transfected with hEBI2-prolink, read-out: EC50, β-arrestin recruitment
From the text: Several assay technologies (Transfluor™, (Ghosh, R. N., et al. (2005). Quantitative cell-based high-content screening for vasopressin receptor agonists using transfluor technology. J Biomol Screen 10.; Granas, C., at al. (2005). High content screening for G protein-coupled receptors using cell-based protein translocation assays. Comb Chem High Throughput Screen 8.); Pathhunter™, (Hammer, M. M., et al. (2007). A novel enzyme complementation-based assay for monitoring G-protein-coupled receptor internalization. Faseb J, 21; Wehrman, T. S., at al. (2005). Enzymatic detection of protein translocation. Nat Methods 2), Tango™, (Barnea, G., et al. (2008). Here we have applied the Pathhunter™ technology (DiscoverRx) to probe for an interaction of EBI2 with B-arrestin. For that human EBI2 was cloned into the Prolink™ vector (DiscoveRx) for GPCR-prolink fusion protein production. Parental HEK293 cells that stably express β-arrestin2-β-gal-EA fusion protein (HEK293-BAEA) were detached and transiently transfected with hEBI2-prolink vector using Fugene6 transfection reagent in suspension mode. Transfected cells in assay medium (Phenol Red-free DMEM with 10% FBS) were plated into white solid 384 well plates at 15,000 cells/25 μl/well. After overnight incubation, 200 nl of test molecules were transferred into the cell plates by PinTool™ (GNF Systems) followed by 1-2 hour incubation at 37° C., 5% CO2. Flash detection reagents were added at 12.5 μl/well. After 5 min—1 hr room temperature incubation, the cell plates were read on CLIPR™ (Perkin Elmer) or Acquest™ (Molecular Devices) for luminescence signal.

hEBI2 [2] = target: T1, hEBI2; assay: aequorin assay, hEBI2 stably transfected CHO-AeqGα16 cells; parameters: expressed in transfected cells; host or cells: CHO-K1 expressing apoaequorin (CHO-Aeq) with Gqi5; line E2
Description: Stable cell line expressing human EBI2 (in pcDNA3.1 vector) and Gα16 was generated with parental CHO cells that stably express apo-aequorin (Euroscreen CHO-A12 cell line). The cells were seeded into 384 well black clear bottom plates (Greiner Bio-one) at 10,000 cells/25 μl well in F12 medium containing 3% FBS and incubated overnight. Coelenterazine (20 μM final) was added into the cell plates at 25 μl/well. The cell plates were returned to incubator for 3 hrs. The compounds were diluted 1:20 into an intermediate plate with Tyrode buffer (130 mM NaCl, 2 mM CaCl2, 5 mM NaHCO3, 5 mM KCl, 1 mM MgCl2, 20 mM HEPES, pH 7.4). 12.5 μl/well of pre-diluted compounds were transfered into the cell assay plate and read on LumiLux™ (Perkin Elmer) for flash luminescence.
An algorithm similar to area under curve (AUC) was created in house to analyze the aequorin kinetic data, which was named Slope Threshold (Slope 100). The algorithm defines the beginning and the end of the luminescence intensity peak by comparing the difference in intensity of each time point with an earlier time point, and determining if the difference exceeds a defined threshold, which was usually set at 100. If it does, then the intensity of the later time point is added into the Slope Threshold's sum.

RXRa (NR2B1) = target: T2, RXRa (NR2B1) (Homo sapiens, UniProt P19793); assay: nuclear hormone receptor reporter gene assay; conditions: concentrations up to 10 μM
T2 sequence (P19793 1-462): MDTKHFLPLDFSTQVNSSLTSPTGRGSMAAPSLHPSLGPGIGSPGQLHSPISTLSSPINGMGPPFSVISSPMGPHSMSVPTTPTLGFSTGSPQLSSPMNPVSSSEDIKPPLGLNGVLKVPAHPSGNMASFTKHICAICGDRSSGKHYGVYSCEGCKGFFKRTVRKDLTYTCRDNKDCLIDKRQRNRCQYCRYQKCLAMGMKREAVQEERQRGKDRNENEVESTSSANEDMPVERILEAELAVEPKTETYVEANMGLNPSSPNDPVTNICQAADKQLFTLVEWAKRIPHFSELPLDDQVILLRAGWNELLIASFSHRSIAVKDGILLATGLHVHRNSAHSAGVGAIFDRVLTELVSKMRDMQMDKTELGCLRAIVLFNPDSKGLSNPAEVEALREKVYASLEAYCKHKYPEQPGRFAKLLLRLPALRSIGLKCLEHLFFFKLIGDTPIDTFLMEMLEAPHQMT
From the text: So far oxysterols have been noted to have various physiological activities namely regulate the expression of genes that participate in both sterol and fat metabolism, serve as substrates for the synthesis of bile acids, and are intermediates in the transfer of sterols from the periphery to the liver (Russell, D. W. (2000). Oxysterol biosynthetic enzymes. Biochim. Biophys. Acta 1529, 126-135). […] This included binding assays for 26 different GPCRs, functional assays of 9 different GPCRs, 40 kinase assays, as well as selected ion channels, proteases, transporter and enzyme assays.

hEBI2 [3] = target: T1, hEBI2; assay: cAMP assay, hEBI2 CHO-AeqGα16 cells; parameters: expressed in transfected cells; host or cells: CHO-K1 expressing apoaequorin (CHO-Aeq) with Gqi5; line E2
Description: The same stable EBI2 cell line used in the aequorin assay was used in cAMP assay. 10,000 cells (25 μA) were seeded per well into white solid 384-well plate and incubated in 37° C. incubator overnight. 500 nl of compound was then transferred into each assay well, followed by 5 μl of forskolin addition for a final concentration of 30 μM. Cells were returned to a 37° C. incubator for 30 min. Finally 15 μl each of HiRange D2-cAMP and anti-cAMP cryptate were dispensed per well. After >1 hr room temperature incubation, data acquisition was done in the time-resolved FRET (fluorescence-resonance energy transfer) mode on Envision™ or ViewLux™ (Perkin Elmer). The ratio between the acceptor fluorescence signal (A665 nm) and donor fluorescence signal (A620 nm)×104, representing the FRET between the conjugated cAMP and the anti-cAMP antibody, was calculated and plotted on Y-axis. The higher the signal, the lower endogenous cAMP concentration is in the sample.

T1 sequence (P32249 whole entry): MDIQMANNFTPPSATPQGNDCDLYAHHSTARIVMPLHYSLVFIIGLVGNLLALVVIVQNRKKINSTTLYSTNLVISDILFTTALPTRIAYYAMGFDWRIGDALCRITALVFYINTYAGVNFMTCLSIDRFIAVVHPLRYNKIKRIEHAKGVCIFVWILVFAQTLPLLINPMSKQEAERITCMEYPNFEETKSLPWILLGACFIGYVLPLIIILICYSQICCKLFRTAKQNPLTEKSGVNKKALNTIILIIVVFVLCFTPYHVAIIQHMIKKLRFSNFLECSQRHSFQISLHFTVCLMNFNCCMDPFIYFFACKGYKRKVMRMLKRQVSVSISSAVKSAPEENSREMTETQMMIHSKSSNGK

C[C@H](CCCC(C)(C)O)[C@H]1CC[C@H]2[C@@H]3[C@H](O)C=C4C[C@@H](O)CC[C@]4(C)[C@H]3CC[C@]12C [7a,25DHC, cholest-5-ene-3b,7a,25-triol]
EC50 (hEBI2 [1]): 8 nM | EC50 (hEBI2 [2]): 18.4 nM | activation of RXRa (RXRa (NR2B1)): did not activate | EC50 (hEBI2 [3]): 10.3 nM

CC(CO)CCC[C@@H](C)[C@H]1CC[C@H]2[C@@H]3[C@H](O)C=C4C[C@@H](O)CC[C@]4(C)[C@H]3CC[C@]12C (stereo partly drawn) [7a,27DHC, cholest-5-ene-3b,7a,27-triol]
activation of RXRa (RXRa (NR2B1)): did not activate

C[C@H](CCCC(C)(C)O)[C@H]1CC[C@H]2[C@@H]3[C@@H](O)C=C4C[C@@H](O)CC[C@]4(C)[C@H]3CC[C@]12C [7b,25DHC, cholest-5-ene-3b,7b,25-triol]
efficacy, β-arrestin recruitment (hEBI2 [1]): 48% | EC50 (hEBI2 [1]): 837 nM | EC50 (hEBI2 [2]; CHO-AeqGα16, read-out: EC50, activation of EBI2 (aequorin)): 398 nM | EC50 (hEBI2 [3]; forskolin 30 μM, read-out: EC50, cAMP assay): 10600 nM
